Results: patent US8822535B2 (priority 2005, dated 2014)
“And” between values parts separate entries of the source, which are not always exact repeats. Identical values can stand only once. Like-named read-outs stand apart in the source and are kept apart here.

What was measured:
mice [1] = settings: mouse, in vivo; for effect on body (subcutaneous) temperature / effective dose (to lower subcutaneous temperature): sc
mice [2] = test system: mice; design: species or system mouse (C57BL/6); settings: mouse, in vivo; for survival in lethal hypoxia: sc
[3] = test system: human foreskin keratinocytes; format: cell-based
[4] = cited from earlier work
Drosophila melanogaster [5] = experiment: Anoxia tolerance of Drosophila melanogaster after CO2 / H2S treatment; format: in vivo; settings: adult flies
Method: Adult flies were introduced into 35 mL tubes made of glass with a gas-tight rubber stopper (Balsh tubes). This was usually accomplished by anesthetizing flies with CO2, moving groups of flies to vials with food to recover for at least 2 hours, and then transferring them into the Balsh tube. To exchange the gaseous environment in the Balsh tube, two 18 gauge needles were inserted into the rubber stopper, and gas is blown into one of the needles at 100 mL/min. To prevent dessication, gasses were humidified by bubbling through 10 mL of water before passing it through the Balsch tube. The water in the bubbler is equilibrated with the gas for at least 20 minutes before starting the experiment.
For “stopped-flow” experiments, gas exchange proceeded for 60 minutes before sealing the tube. For “low-flow” experiments, gas flow continued throughout the experiment. CO2 was from the house source (100%), and anoxic environments were established by flushing out room air with 100% nitrogen (N2). Care was taken to prevent introduction of room air into the system while switching the atmosphere from CO2 to N2.
After anoxic treatment, oxygen was reintroduced into the Balsh tube by flushing with house air for 20 minutes. The rubber stopper was then removed and a food vial is inverted over the top of the Balsh tubes with Parafilm. […] Viability was scored at least 18 hours after the end of anoxic treatment. After two weeks, if the food vials contained larvae and/or pupae the flies were considered to be fertile.

nematodes (C. elegans) = experiment: Nematode lethal hypothermia screening assay; format: in vivo; settings: carbon monoxide atmosphere at room temperature prior to 4 degrees C. for 16 hrs
Excerpt: A screening assay was established using nematodes (C. elegans). […] Worms were exposed for X minutes at room temperature to an atmosphere containing Y % carbon monoxide, prior to exposing them to 4 degrees C. for 16 hrs. […] Since carbon monoxide is a known stasis inducer in nematodes and neonatal human foreskin keratinocytes, the nematode assay is capable of identifying stasis inducing compounds as such by their ability to increase the survivability of worms exposed to lethal hypothermia when the worms are pre-equilibrated in the stasis inducer or other active compound.

mice [6] = format: in vivo, mouse
[7] = previously reported in the literature; cited from earlier work
mice [8] = experiment: Gas matrix: metabolic flexibility in altered gas environments, mice; format: in vivo, mouse; settings: for depression in metabolic rate, Mouse: ambient 7 to 10° C., 6-hour treatment
Method: (§1) Metabolic flexibility was evaluated in mice rats and dogs using altered gas environments. Three parameters were used to define this reduction in metabolism including changes in carbon dioxide production, oxygen consumption measured by respirometry, and core temperature as measured using telemetry. In experiments with mice and rats the animals were placed into sealed chambers with one gas import and one gas export. For dogs a mask was placed over the snout of the animal with two hoses (import and export) attached to the mask. The flow rate of gas for each of the animals mice—500 cc per minute, rats—2 liters per minute, and dogs 40 liters per minute. Each atmosphere was constructed from compressed gas by dilution into room air unless otherwise noted. For rat and mouse experiments the ambient temperature was 7 to 10° C. during exposure to the test gases. For dogs ambient temperature was room temperature (22° C.).
(§2) Evidence of depression in metabolic rate of greater than 5-fold as judged by carbon dioxide production or oxygen consumption during a 6-hour treatment is described by “Yes”; […]; “N/D” denotes experiments not done. The temperature drop in the dog experiment (Carbon dioxide+low oxygen+Helium) was approximately 1.5° C. over the course of 30 minutes of exposure. This drop in temperature was considered significant because the dog was 12 kg and no such temperature drop was seen during extensive baseline recording of the animal in room air.

rats = experiment: Gas matrix: metabolic flexibility in altered gas environments, rats; format: in vivo, rat; settings: ambient 7 to 10° C., 6-hour treatment
Method: as §1, §2

Drosophila melanogaster [9] = experiment: Anoxia tolerance of Drosophila melanogaster after CO2 / H2S treatment; format: in vivo
dogs = experiment: Gas matrix: metabolic flexibility in altered gas environments, dogs; format: in vivo, dog; settings: 9%
Method: as §1, §2

[10] = 100 ppb H2Se, less than 10 minutes (FIG. 26)

For CC(=O)N[C@@H](CS)C(=O)O [N-acetyl-L-cysteine], the “effect on body (subcutaneous) temperature” value (shortened to “effect on body”) (mice [1]) was “did not reduce subcutaneous temperature”.

With C[S-].[Na+] [sodium thiomethoxide] the “effective dose (to lower subcutaneous temperature)” value (mice [1]) was 4.61 mmol/kg and the “survival in lethal hypoxia” value (mice [2]) was 60 min.

In the case of N=C(N)[SeH] [selenourea], the “effect on body” value (mice [1]) is reported as “reduced body temperature” and the “protection from lethal hypoxia” value (mice [2]) is reported as “did not enhance survival in hypoxia”.

With N#C[S-].[Na+] [sodium thiocyanate] the “effective dose (to lower subcutaneous temperature)” value (mice [1]) was 4.67 mmol/kg.

In the case of [C-]#[O+] [CO, carbon monoxide], the “# cells recovered” value [3] is reported as 167, the Total colonies [3] is reported as 542 colonies (many of which were very and 780 colonies (many of which were very and the “dead (tb+), SUM” value [3] is reported as 61. The fraction alive [3] was 0.91 and 0.50 and 0.77 and 0.83 and 0.54 and 0.80, the “fraction alive, SUM” value [3] was 0.63 and the “growth of keratinocyte populations” value [3] was “significant growth”. For the same molecule, the “live (tb−), SUM” value [3] was 106, the “survival of skin cells relative to room air” value [3] was 100 fold and the “lethality and suspended animation” value (C. elegans embryos; 100% carbon monoxide, 24 hr, room temperature) was “not lethal and induced reversible suspended animation”. For the same molecule, the survival (C. elegans embryos; 500 ppm oxygen balanced with carbon monoxide, 24 hr) was “entered into suspended animation and survived”, the survival to adulthood (C. elegans embryos; hif-1(ia04) embryos, 0.25 kPa O2/CO, 24 hrs) was 83.9% ± 13.8 and the survival to adulthood (C. elegans embryos; hif-1(ia04) embryos, 0.25 kPa O2/CO, 24 hrs, listed as carbon monoxide) was 84.0%. The survival to adulthood (C. elegans embryos; wild-type (N2) embryos, 0.25 kPa O2/CO, 24 hrs) was 78.7% ± 21.9, the survival to adulthood (C. elegans embryos; wild-type (N2) embryos, 0.25 kPa O2/CO, 24 hrs, listed as carbon monoxide) was 78.7% and the viability to adulthood (C. elegans embryos; wild-type embryos, 0.05 kPa O2 balanced with carbon monoxide, 24 hrs) was 96.2%. For the same molecule, the survival to adulthood (C. elegans embryos; wild-type embryos, 101 kPa CO (100% CO), 24 hrs) was 81.5%, the symptoms ([4]; 50 ppm) was “no symptoms” and the symptoms ([4]; 200 ppm, within two-three hours) was “slight headache”. For the same molecule, the symptoms ([4]; 400 ppm, within one to two hours) was “frontal headache”, the symptoms ([4]; 800 ppm, within 45 minutes) was “dizziness, nausea, and/or convulsions” and the lethality ([4]; around 1000 ppm, exposure for more than around 1-2 minutes) was “can expire”. The survival (Drosophila melanogaster [5]; treated only with CO for 10 min before the anoxic exposure (18.5 h)) was 11% and the “survival after exposure to cold” value (nematodes (C. elegans)) was “survived with high viability”.

With [SeH2] [H2Se, hydrogen selenide] the “core body temperature and respiration” value (mice [6]; 10 ppb of H2Se (FIG. 27)) was “reduction in core body temperature and respiration”, the core body temperature (mice [6]; [10]) was “drop in core body temperature” and the “reduction in metabolic activity as evidenced by respiration” value (mice [6]; [10]) was 3 fold. For the same molecule, the reversibility of effects (mice [6]; tests used to evaluate reversibility with H2S) was “fully reversible”, the “concentration lethal to animals” value [7] was “greater than 1 ppm” and the “depression in metabolic rate, Mouse” value (mice [8]; 0.0001% in room air) was “Yes 0.0001% (Evidence of depression in metabolic rate of greater than 5-fold as judged by carbon dioxide production or oxygen consumption during a 6-hour treatment is described by “Yes”)”. For the same molecule, the “core body temperature (CBT)” value (mice [8]; mouse, 1.2 ppm of H2Se, 2 hours and 10 minutes, 5° C. ambient (FIG. 34)) was “significant drop in CBT” and the “depression in metabolic rate, Rat” value (rats; 0.003% in room air) was “Yes 0.003% (Evidence of depression in metabolic rate of greater than 5-fold as judged by carbon dioxide production or oxygen consumption during a 6-hour treatment is described by “Yes”)”.

In the case of [SeH2] [sodium selenide], the “effect on body” value (mice [1]) is reported as “did not reduce subcutaneous temperature”.

With OC1CCSCC1 [tetrahydrothiopyran-4-ol] the “survival in lethal hypoxia” value (mice [2]) was 15 min.

With O=C=O [CO2, carbon dioxide] the survival (Drosophila melanogaster [9]; adult flies, CO2 then N2 with bubbler water not equilibrated with N2, 13 h anoxic exposure) was “no flies survived”, the movement upon reoxygenation (Drosophila melanogaster [9]; larvae, pretreated, 24.5 h anoxia) was “can resume movement” and the pupae formed (Drosophila melanogaster [9]; pool of 0-19 h old embryos, CO2 10 min pretreatment, anoxia 24 h) was 20 pupae. The “depression in metabolic rate, Mouse” value (mice [8]; 15%) was “Yes 15% (Evidence of depression in metabolic rate of greater than 5-fold as judged by carbon dioxide production or oxygen consumption during a 6-hour treatment is described by “Yes”)”, the “control of metabolic flexibility” value (mice [8]; mice, 15% CO2) was “affords control of metabolic flexibility” and the “tidal volume and respiration rate” value (mice [8]; mice, 15% CO2) was “tidal volume increases but respiration rate remains unchanged”. For the same molecule, the survival (Drosophila melanogaster [5]; 100% CO2 pretreatment 30 minutes, 19 h anoxic exposure, stopped-flow) was 54%, the survival (Drosophila melanogaster [5]; 100% CO2 pretreatment 90 minutes, 19 h anoxic exposure, stopped-flow) was 28% and the survival (Drosophila melanogaster [5]; 10 min CO2 pretreatment, 17, 22, and 24 h of anoxia, low-flow) was “no survival was observed”. For the same molecule, the survival (Drosophila melanogaster [5]; CO2 10 minutes before 20 h anoxic exposure, low-flow (no H2S)) was 6%, the survival (Drosophila melanogaster [5]; CO2 pretreatment and CO2 for 20 minutes immediately following anoxic exposure) was “no flies survived” and the “depression in metabolic rate, Dog” value (dogs; mask, room temperature (22° C.)) was “No 9% (“No” (reduction or less than a 5-fold reduction in these values is described as such)”. The “core body temperature (CBT)” value (dogs; dog, 12% and 15% carbon dioxide in room air (FIG. 40)) was “A similar drop” and the “depression in metabolic rate, Rat” value (rats; 15%) was “Yes 15% (Evidence of depression in metabolic rate of greater than 5-fold as judged by carbon dioxide production or oxygen consumption during a 6-hour treatment is described by “Yes”)”.

In the case of O=C(O)CS [thioglycolic acid], the toxicity (mice [1]) is reported as “toxic at the effective temperature reducing dose” and the “effect on body” value (mice [1]) is reported as “reduced body temperature”.

With NCCS [cysteamine] the “effective dose (to lower subcutaneous temperature)” value (mice [1]) was 7.58 mmol/kg and the “survival in lethal hypoxia” value (mice [2]) was 45 min.

In the case of NCCCNCCSP(=O)(O)O [phosphorothioic acid S-(2-((3-aminopropyl)amino)ethyl) ester], the “effect on body” value (mice [1]) is reported as “reduced body temperature” and the “protection from lethal hypoxia” value (mice [2]) is reported as “did not enhance survival in hypoxia”.

With OCCS [2-mercapto-ethanol] the toxicity (mice [1]) was “toxic at the effective temperature reducing dose” and the “effect on body” value (mice [1]) was “reduced body temperature”.

With SCCOCCS [2-mercaptoethyl ether] the toxicity (mice [1]) was “toxic at the effective temperature reducing dose” and the “effect on body” value (mice [1]) was “reduced body temperature”.

For CC(O)=S [Thioacetic acid], the “effect on body” value (mice [1]) was “reduced body temperature” and the “protection from lethal hypoxia” value (mice [2]) was “did not enhance survival in hypoxia”.

For CSC [dimethyl sulfide], the “effect on body” value (mice [1]) was “did not reduce subcutaneous temperature”.

For CS(=O)[O-].[Na+] [sodium methane sulfinate], the “effect on body” value (mice [1]) was “did not reduce subcutaneous temperature”.
